Source: PMC5078040 (Oncotarget, 2016)

Tests used:
PI3Kδ = PI3Kδ (Homo sapiens, UniProt O00329); test: ADP-glo biochemical assay; settings: purified enzyme, read-out: biochemical IC50 PI3K Delta
Experimental: (§1) The reaction in each tube was started immediately by adding ATP and kept going for an hour under 37°C. After the tube cooled for 5 minutes at room temperature, 5 μL solvent reactions were carried out in a 384-well plate. Then 5 μL of ADP-Glo™ reagent was added into each well to stop the reaction and consume the remaining ADP within 40 minutes. At the end, 10 μL of kinase detection reagent was added into the well and incubated for 30 minutes to produce a luminescence signal. Luminescence signal was measured with an automated plate reader (Perkin-Elmer Envision) and each measurement was performed in triplicate.

ACVR2A = molecular target: T1, ACVR2A (Homo sapiens, UniProt P27037); test: KinomeScan; format: binding; settings: 1uM
T1 construct: purchased DiscoveRx KINOMEscan

AKT1 = molecular target: T2, AKT1 (Homo sapiens, UniProt P31749); test: KinomeScan; format: binding; settings: 1uM
T2 construct: purchased DiscoveRx KINOMEscan

BMX = molecular target: T3, BMX (Homo sapiens, UniProt P51813); test: KinomeScan; format: binding; settings: 1uM
T3 construct: purchased DiscoveRx KINOMEscan

CAMKK2 = molecular target: T4, CAMKK2 (Homo sapiens, UniProt Q96RR4); test: KinomeScan; format: binding; settings: 1uM
T4 construct: purchased DiscoveRx KINOMEscan

CDKL5 = molecular target: T5, CDKL5 (Homo sapiens, UniProt O76039); test: KinomeScan; format: binding; settings: 1uM
T5 construct: purchased DiscoveRx KINOMEscan

CSNK1A1L = molecular target: T6, CSNK1A1L (Homo sapiens, UniProt Q8N752); test: KinomeScan; format: binding; settings: 1uM
T6 construct: purchased DiscoveRx KINOMEscan

DAPK3 = molecular target: T7, DAPK3 (Homo sapiens, UniProt O43293); test: KinomeScan; format: binding; settings: 1uM
T7 construct: purchased DiscoveRx KINOMEscan

DMPK2 = molecular target: T8, DMPK2 (Homo sapiens, UniProt Q6DT37); test: KinomeScan; format: binding; settings: 1uM
T8 construct: purchased DiscoveRx KINOMEscan

EGFR(G719C) = molecular target: T9, EGFR(G719C) (Homo sapiens, UniProt P00533, G719C); test: KinomeScan; format: binding; settings: 1uM
T9 construct: purchased DiscoveRx KINOMEscan

EPHA7 = molecular target: T10, EPHA7 (Homo sapiens, UniProt Q15375); test: KinomeScan; format: binding; settings: 1uM
T10 construct: purchased DiscoveRx KINOMEscan

EPHA8 = molecular target: T11, EPHA8 (Homo sapiens, UniProt P29322); test: KinomeScan; format: binding; settings: 1uM
T11 construct: purchased DiscoveRx KINOMEscan

ERK2 = molecular target: T12, ERK2 (Homo sapiens, UniProt P28482); test: KinomeScan; format: binding; settings: 1uM
T12 construct: purchased DiscoveRx KINOMEscan

FGFR1 = molecular target: T13, FGFR1 (Homo sapiens, UniProt P11362); test: KinomeScan; format: binding; settings: 1uM
T13 construct: purchased DiscoveRx KINOMEscan

FLT3(R834Q) = molecular target: T14, FLT3(R834Q) (Homo sapiens, UniProt P36888, R834Q); test: KinomeScan; format: binding; settings: 1uM
T14 construct: purchased DiscoveRx KINOMEscan

GSK3A = molecular target: T15, GSK3A (Homo sapiens, UniProt P49840); test: KinomeScan; format: binding; settings: 1uM
T15 construct: purchased DiscoveRx KINOMEscan

HIPK4 = molecular target: T16, HIPK4 (Homo sapiens, UniProt Q8NE63); test: KinomeScan; format: binding; settings: 1uM
T16 construct: purchased DiscoveRx KINOMEscan

IKK-epsilon = molecular target: T17, IKK-epsilon (Homo sapiens, UniProt Q14164); test: KinomeScan; format: binding; settings: 1uM
T17 construct: purchased DiscoveRx KINOMEscan

IRAK3 = molecular target: T18, IRAK3 (Homo sapiens, UniProt Q9Y616); test: KinomeScan; format: binding; settings: 1uM
T18 construct: purchased DiscoveRx KINOMEscan

KIT = molecular target: T19, KIT (Homo sapiens, UniProt P10721); test: KinomeScan; format: binding; settings: 1uM
T19 construct: purchased DiscoveRx KINOMEscan

KIT(A829P) = molecular target: T20, KIT(A829P) (Homo sapiens, UniProt P10721, A829P); test: KinomeScan; format: binding; settings: 1uM
T20 construct: purchased DiscoveRx KINOMEscan

LOK = molecular target: T21, LOK (Homo sapiens, UniProt O94804); test: KinomeScan; format: binding; settings: 1uM
T21 construct: purchased DiscoveRx KINOMEscan

LTK = molecular target: T22, LTK (Homo sapiens, UniProt P29376); test: KinomeScan; format: binding; settings: 1uM
T22 construct: purchased DiscoveRx KINOMEscan

MAP3K1 = molecular target: T23, MAP3K1 (Homo sapiens, UniProt Q13233); test: KinomeScan; format: binding; settings: 1uM
T23 construct: purchased DiscoveRx KINOMEscan

MAP3K3 = molecular target: T24, MAP3K3 (Homo sapiens, UniProt Q99759); test: KinomeScan; format: binding; settings: 1uM
T24 construct: purchased DiscoveRx KINOMEscan

MERTK = molecular target: T25, MERTK (Homo sapiens, UniProt Q12866); test: KinomeScan; format: binding; settings: 1uM
T25 construct: purchased DiscoveRx KINOMEscan

MLK1 = molecular target: T26, MLK1 (Homo sapiens, UniProt P80192); test: KinomeScan; format: binding; settings: 1uM
T26 construct: purchased DiscoveRx KINOMEscan

PFPK5(P.falciparum) = molecular target: T27, PFPK5(P.falciparum) (Plasmodium falciparum, UniProt P61075); test: KinomeScan; format: binding; settings: 1uM
T27 construct: purchased DiscoveRx KINOMEscan

PIM1 = molecular target: T28, PIM1 (Homo sapiens, UniProt P11309); test: KinomeScan; format: binding; settings: 1uM
T28 construct: purchased DiscoveRx KINOMEscan

PIM2 = molecular target: T29, PIM2 (Homo sapiens, UniProt Q9P1W9); test: KinomeScan; format: binding; settings: 1uM
T29 construct: purchased DiscoveRx KINOMEscan

PRKG1 = molecular target: T30, PRKG1 (Homo sapiens, UniProt Q13976); test: KinomeScan; format: binding; settings: 1uM
T30 construct: purchased DiscoveRx KINOMEscan

SNRK = molecular target: T31, SNRK (Homo sapiens, UniProt Q9NRH2); test: KinomeScan; format: binding; settings: 1uM
T31 construct: purchased DiscoveRx KINOMEscan

STK33 = molecular target: T32, STK33 (Homo sapiens, UniProt Q9BYT3); test: KinomeScan; format: binding; settings: 1uM
T32 construct: purchased DiscoveRx KINOMEscan

SYK = molecular target: T33, SYK (Homo sapiens, UniProt P43405); test: KinomeScan; format: binding; settings: 1uM
T33 construct: purchased DiscoveRx KINOMEscan

TNIK = molecular target: T34, TNIK (Homo sapiens, UniProt Q9UKE5); test: KinomeScan; format: binding; settings: 1uM
T34 construct: purchased DiscoveRx KINOMEscan

ULK1 = molecular target: T35, ULK1 (Homo sapiens, UniProt O75385); test: KinomeScan; format: binding; settings: 1uM
T35 construct: purchased DiscoveRx KINOMEscan

YANK3 = molecular target: T36, YANK3 (Homo sapiens, UniProt Q86UX6); test: KinomeScan; format: binding; settings: 1uM
T36 construct: purchased DiscoveRx KINOMEscan

PIK3C2A = molecular target: T37, PIK3C2A (Homo sapiens, UniProt O00443); test: ADP-glo biochemical assay
T37 construct: purchased Invitrogen
Experimental: as §1

PI3Kα = molecular target: T38, PI3Kα (Mus musculus, UniProt P42337); test: PI3Ks isoform in cell EC50 assay (AKT phosphorylation, Western Blotting); format: cell-based; settings: NIH-3T3, 20ng/ml PDGF-BB, read-out: cellular EC50 PI3K Alpha
T38 construct: endogenous in cells; host or cells: NIH-3T3

[1] = system: panel of cancer cell lines derived from B-cell malignancies; test: Anti-proliferative assay (panel summary); format: cell-based; settings: Homo sapiens; most of the cell lines including AML, B-cell lymphoma and multiple myeloma cell lines
Experimental: Cells were grown in 96-well culture plates (3000-4000/well). […] Cell proliferation was determined after treatment with compounds for 72 hours. Cell viability was measured using the CellTiter–Glo Assay Kit (Promega, USA), according to the manufacturer's instructions, and luminescence was measured in a multi-label reader (Envision, PerkinElmer, USA). Data were normalized to control groups (DMSO) and represented by the mean of three independent measurements with standard error <20%. GI50 values were calculated using Prism 5.0 (GraphPad Software, San Diego, CA).

T38 sequence (P42337 whole entry, canonical isoform): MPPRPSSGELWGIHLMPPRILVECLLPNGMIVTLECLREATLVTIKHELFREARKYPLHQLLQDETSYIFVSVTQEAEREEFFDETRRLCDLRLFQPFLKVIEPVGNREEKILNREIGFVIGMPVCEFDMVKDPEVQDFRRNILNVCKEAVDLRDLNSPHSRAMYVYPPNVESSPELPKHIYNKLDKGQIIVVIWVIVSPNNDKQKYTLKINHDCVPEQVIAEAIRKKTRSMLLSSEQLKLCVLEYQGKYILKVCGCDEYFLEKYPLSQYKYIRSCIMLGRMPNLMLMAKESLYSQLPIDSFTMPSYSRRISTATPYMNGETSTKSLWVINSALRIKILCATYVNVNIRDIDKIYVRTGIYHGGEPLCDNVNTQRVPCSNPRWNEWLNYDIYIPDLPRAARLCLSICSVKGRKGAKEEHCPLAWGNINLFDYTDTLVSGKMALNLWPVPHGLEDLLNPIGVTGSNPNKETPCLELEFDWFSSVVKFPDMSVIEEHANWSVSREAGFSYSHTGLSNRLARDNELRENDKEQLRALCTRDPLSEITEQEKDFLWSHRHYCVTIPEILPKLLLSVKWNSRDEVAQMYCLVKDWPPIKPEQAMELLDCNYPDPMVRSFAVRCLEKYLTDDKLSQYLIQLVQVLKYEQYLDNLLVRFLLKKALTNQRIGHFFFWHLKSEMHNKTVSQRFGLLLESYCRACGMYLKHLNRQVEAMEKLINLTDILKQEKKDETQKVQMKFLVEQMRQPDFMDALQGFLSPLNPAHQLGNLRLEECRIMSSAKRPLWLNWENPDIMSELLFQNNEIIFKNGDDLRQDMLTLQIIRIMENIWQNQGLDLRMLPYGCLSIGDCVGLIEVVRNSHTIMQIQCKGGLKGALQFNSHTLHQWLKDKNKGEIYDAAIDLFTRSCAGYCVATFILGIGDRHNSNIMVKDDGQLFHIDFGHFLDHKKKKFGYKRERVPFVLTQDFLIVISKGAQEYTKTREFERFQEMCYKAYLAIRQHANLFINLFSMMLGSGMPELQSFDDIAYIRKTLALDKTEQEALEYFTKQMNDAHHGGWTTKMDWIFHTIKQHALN
T38 sequence (P26450 whole entry partner, canonical isoform): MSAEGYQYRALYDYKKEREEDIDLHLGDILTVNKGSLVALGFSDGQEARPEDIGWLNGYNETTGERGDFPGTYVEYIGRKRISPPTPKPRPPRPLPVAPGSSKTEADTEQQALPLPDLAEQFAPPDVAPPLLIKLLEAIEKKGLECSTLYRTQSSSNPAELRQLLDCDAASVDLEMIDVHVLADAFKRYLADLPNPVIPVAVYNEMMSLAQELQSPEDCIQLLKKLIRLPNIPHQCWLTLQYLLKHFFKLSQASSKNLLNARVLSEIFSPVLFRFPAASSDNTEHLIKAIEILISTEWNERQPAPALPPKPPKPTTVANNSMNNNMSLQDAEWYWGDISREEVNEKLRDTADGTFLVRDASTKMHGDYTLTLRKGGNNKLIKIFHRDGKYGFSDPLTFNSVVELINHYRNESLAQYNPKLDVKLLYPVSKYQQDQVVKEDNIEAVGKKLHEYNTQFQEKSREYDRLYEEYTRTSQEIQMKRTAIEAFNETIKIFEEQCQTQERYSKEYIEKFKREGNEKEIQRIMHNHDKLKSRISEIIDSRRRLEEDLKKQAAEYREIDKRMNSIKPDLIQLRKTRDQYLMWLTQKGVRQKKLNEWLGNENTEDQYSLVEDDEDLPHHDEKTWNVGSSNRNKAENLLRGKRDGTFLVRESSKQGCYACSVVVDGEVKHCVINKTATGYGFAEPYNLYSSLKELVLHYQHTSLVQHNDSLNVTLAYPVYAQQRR
T7 sequence (O43293 whole entry): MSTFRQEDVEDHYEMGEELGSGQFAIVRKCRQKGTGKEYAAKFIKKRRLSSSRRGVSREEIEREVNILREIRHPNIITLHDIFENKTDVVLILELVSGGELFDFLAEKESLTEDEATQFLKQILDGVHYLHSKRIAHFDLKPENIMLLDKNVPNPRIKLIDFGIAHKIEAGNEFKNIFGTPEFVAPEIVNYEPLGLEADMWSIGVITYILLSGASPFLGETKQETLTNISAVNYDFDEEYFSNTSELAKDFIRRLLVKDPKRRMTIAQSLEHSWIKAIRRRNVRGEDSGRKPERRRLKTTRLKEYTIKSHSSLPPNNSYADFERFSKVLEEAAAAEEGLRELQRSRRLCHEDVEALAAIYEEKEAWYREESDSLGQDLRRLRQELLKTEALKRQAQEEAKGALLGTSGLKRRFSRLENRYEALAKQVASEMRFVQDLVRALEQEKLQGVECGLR
T12 sequence (P28482 whole entry): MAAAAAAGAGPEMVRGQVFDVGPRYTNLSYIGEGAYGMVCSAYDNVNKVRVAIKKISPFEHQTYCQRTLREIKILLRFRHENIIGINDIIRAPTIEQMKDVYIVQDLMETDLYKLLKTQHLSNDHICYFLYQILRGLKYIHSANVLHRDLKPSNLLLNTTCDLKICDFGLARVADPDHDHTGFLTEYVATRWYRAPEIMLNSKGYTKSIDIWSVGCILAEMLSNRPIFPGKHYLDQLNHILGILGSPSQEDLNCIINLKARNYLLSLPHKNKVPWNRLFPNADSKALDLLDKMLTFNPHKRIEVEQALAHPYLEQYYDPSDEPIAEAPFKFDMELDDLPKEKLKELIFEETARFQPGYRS
T35 sequence (O75385 whole entry): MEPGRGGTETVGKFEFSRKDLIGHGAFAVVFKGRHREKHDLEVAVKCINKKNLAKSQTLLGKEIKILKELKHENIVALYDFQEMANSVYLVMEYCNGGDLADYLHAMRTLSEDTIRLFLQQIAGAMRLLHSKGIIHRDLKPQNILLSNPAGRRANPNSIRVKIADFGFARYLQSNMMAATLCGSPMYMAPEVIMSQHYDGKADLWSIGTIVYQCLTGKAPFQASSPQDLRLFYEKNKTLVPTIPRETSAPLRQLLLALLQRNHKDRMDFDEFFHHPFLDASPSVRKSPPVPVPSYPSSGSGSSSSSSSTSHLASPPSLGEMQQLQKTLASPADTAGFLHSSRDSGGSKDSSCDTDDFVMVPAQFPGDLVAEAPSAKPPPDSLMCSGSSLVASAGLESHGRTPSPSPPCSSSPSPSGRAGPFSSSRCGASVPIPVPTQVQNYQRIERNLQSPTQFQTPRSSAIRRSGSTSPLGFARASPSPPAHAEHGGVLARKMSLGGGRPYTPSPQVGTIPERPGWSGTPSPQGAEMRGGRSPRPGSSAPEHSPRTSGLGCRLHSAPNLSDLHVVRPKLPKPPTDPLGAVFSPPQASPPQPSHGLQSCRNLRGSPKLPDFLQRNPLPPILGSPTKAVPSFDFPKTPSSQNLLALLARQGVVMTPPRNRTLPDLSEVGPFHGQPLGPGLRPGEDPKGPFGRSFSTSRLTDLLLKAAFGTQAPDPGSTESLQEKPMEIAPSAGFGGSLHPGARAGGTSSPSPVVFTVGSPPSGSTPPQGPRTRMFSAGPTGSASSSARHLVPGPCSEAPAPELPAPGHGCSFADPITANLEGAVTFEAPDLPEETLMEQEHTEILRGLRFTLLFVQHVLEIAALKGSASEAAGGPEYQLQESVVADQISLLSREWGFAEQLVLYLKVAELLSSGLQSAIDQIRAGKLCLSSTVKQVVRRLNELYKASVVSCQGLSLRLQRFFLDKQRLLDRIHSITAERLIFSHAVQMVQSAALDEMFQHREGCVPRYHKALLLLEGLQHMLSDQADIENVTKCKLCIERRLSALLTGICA
T18 sequence (Q9Y616 whole entry): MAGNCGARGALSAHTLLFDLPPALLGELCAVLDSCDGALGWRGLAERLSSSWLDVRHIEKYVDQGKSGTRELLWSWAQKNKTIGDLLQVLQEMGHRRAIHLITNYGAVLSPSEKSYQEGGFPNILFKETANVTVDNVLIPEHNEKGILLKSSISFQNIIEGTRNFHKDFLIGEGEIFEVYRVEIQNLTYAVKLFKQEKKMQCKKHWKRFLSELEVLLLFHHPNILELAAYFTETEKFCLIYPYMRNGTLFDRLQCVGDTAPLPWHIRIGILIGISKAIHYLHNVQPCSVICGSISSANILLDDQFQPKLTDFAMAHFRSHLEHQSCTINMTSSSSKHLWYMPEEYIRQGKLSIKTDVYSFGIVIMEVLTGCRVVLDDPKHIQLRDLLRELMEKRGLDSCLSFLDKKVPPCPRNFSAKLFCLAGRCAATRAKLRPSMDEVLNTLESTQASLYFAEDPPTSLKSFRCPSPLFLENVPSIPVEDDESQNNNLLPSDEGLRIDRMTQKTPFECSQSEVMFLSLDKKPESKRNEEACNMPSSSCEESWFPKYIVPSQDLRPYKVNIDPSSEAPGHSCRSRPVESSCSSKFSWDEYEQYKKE
T31 sequence (Q9NRH2 whole entry): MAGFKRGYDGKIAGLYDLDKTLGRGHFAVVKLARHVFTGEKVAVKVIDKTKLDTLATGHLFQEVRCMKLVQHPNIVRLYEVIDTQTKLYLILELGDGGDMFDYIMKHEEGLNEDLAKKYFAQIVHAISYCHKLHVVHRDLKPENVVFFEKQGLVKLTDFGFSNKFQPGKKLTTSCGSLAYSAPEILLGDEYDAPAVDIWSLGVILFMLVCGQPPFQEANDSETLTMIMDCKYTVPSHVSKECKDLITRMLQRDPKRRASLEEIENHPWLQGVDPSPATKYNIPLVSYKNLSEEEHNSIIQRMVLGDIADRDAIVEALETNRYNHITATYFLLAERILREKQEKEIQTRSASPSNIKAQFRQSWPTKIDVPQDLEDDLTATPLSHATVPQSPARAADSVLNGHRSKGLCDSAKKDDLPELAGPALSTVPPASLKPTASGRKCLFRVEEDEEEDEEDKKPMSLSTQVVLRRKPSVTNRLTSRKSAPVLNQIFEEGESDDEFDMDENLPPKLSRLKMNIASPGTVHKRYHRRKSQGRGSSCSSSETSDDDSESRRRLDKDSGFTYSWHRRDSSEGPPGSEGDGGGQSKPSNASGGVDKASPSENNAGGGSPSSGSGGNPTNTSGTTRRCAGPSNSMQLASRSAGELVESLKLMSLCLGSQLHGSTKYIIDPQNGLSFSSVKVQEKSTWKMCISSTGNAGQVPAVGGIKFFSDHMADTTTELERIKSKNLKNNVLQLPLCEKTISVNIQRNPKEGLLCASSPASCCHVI

Cc1nc(NC(=O)[C@@H](N)C(C)C)sc1-c1cnc(Cl)c(NS(=O)(=O)c2ccccc2)c1 [PI3KD-IN-015]
IC50 (PI3Kδ): 0.005 µM | KinomeScan ACVR2A (ACVR2A): 100 | KinomeScan AKT1 (AKT1): 91 | KinomeScan BMX (BMX): 100 | KinomeScan CAMKK2 (CAMKK2): 96 | KinomeScan CDKL5 (CDKL5): 87 | KinomeScan CSNK1A1L (CSNK1A1L): 100 | KinomeScan DAPK3 (DAPK3): 91 | KinomeScan DMPK2 (DMPK2): 100 | KinomeScan EGFR(G719C) (EGFR(G719C)): 100 | KinomeScan EPHA7 (EPHA7): 100 | KinomeScan EPHA8 (EPHA8): 100 | KinomeScan ERK2 (ERK2): 100 | KinomeScan FGFR1 (FGFR1): 100 | KinomeScan FLT3(R834Q) (FLT3(R834Q)): 84 | KinomeScan GSK3A (GSK3A): 95 | KinomeScan HIPK4 (HIPK4): 83 | KinomeScan IKK-epsilon (IKK-epsilon): 100 | KinomeScan IRAK3 (IRAK3): 100 | KinomeScan KIT (KIT): 92 | KinomeScan KIT(A829P) (KIT(A829P)): 96 | KinomeScan LOK (LOK): 99 | KinomeScan LTK (LTK): 100 | KinomeScan MAP3K1 (MAP3K1): 96 | KinomeScan MAP3K3 (MAP3K3): 100 | KinomeScan MERTK (MERTK): 96 | KinomeScan MLK1 (MLK1): 100 | KinomeScan PFPK5(P.falciparum) (PFPK5(P.falciparum)): 100 | KinomeScan PIM1 (PIM1): 100 | KinomeScan PIM2 (PIM2): 72 | KinomeScan PRKG1 (PRKG1): 89 | KinomeScan SNRK (SNRK): 100 | KinomeScan STK33 (STK33): 88 | KinomeScan SYK (SYK): 100 | KinomeScan TNIK (TNIK): 95 | KinomeScan ULK1 (ULK1): 74 | KinomeScan YANK3 (YANK3): 97 | IC50 (PIK3C2A): > 10 µM | EC50 (PI3Kα): > 3 µM | GI50 [1]: 1 to 10 µM
